This is an account of results in patent publication US20240110004A1 (Northwestern University, priority 2022, published 2024).

For the assay, the system named is R6/2 mice. The assay can be described thus: Western blot of DARPP-32, PSD95 and BDNF in striatal lysates. It is filed as in vivo, mouse. From the text:
FIG. 32A-32C: Histograms of Quantified Western Blot Results for Protein Levels (blots not shown). Actin was used as the loading control in the Western Blot, results are therefore depicted as ratios of the protein of interest signal relative to the actin signal in each sample. FIG. 32A depicts DARPP-32 levels in striatal lysates. p-value for: WT veh as compared to R62 veh: <0.0001; WT+P1 as compared to R62 veh: <0.0001; R62 veh as compared to R62+HV3-TAT: 0.0493; R62 veh as compared to R62+P1: 0.0027; R62+P1 as compared to R62+HV3-TAT: 0.7733. FIG. 32B depicts PSD95 levels in striatal lysates. p-value for: WT veh as compared to R62 veh: 0.0034; WT+P1 as compared to R62 veh: <0.0001; R62 veh as compared to R62+HV3-TAT: 0.0191; R62 veh as compared to R62+P1: <0.0001; R62+P1 as compared to R62+HV3-TAT: 0.1442. FIG. 32C depicts BDNF levels in striatal lysates. p-value for: WT veh as compared to R62 veh: <0.0001; WT+P1 as compared to R62 veh: <0.0001; R62 veh as compared to R62+HV3-TAT: 0.0120; R62 veh as compared to R62+P1: <0.0001; R62+P1 as compared to R62+HV3-TAT: 0.0257.
In vivo Efficacy Methods—Levels of Proteins of Interest: To further assess the efficacy of P1 in modulating HD neuropathology, the levels of cAMP-regulated phosphoprotein 32 kDa (DARPP-32), post-synaptic density protein (PSD95), and brain derived neurotrophic factor (BDNF) were determined in medium spiny neurons, each of which are decreased in the striatum of HD patients and R6/2 mouse models. Striatal lysates were generated from frozen striatal tissue from un-perfused sacrificed mice. Using a plate reader, protein concentrations were determined by protein assay dye (Bio-Rad). Protein stocks in lysis buffer were mixed with Laemmli buffer, loaded on SDS-PAGE, and transferred onto nitrocellulose membranes (Invitrogen). Membranes were probed with the primary antibodies for actin, DARPP-32, PSD95, and BDNF, and respective IgG-HRP secondary antibodies, followed by visualization of HRP with a blot scanner.

Where no end group is shown, it is not given here.

As for “P1: PLP homopolymer having peptide side chains of SEQ ID: 1 (HVLVMSATRR), made by ROMP of norbornene peptide monomer M1 (also: side chains of polynorbornene homopolymer (PLP, ROMP of norbornene peptide monomer))”, where the note is “compared to the saline control”, the “BDNF protein levels in striatal lysates” value is “Significant increases” and the “PSD95 protein levels in striatal lysates” value was “Significant increases”. Moreover, the “DARPP-32 levels in striatal lysates (immunoblotting)” value (over saline control) was “significantly increased DARPP-32 levels”.
